Where a SMILES comes first, the peptide text is derived from it.
Experiments:
Details in all cases: 50:1 E:T
[1] = test system: WT1 peptide loaded autologous APC; test: Cr51 release assay, cytotoxic CTL response vs peptide loaded autologous APC; format: cell-based, human
[2] = test system: WT1- allo APC with restricting HLA allele; test: Cr51 release assay, cytotoxic CTL response vs unloaded allogeneic APC sharing restricting HLA allele; format: cell-based, human
[3] = test system: WT1- autologous APC; test: Cr51 release assay, cytotoxic CTL response vs unmodified autologous APC; format: cell-based, human
[4] = test system: WT1+ leukemia; test: Cr51 release assay, cytotoxic CTL response vs WT1+ leukemia expressing restricting HLA allele; format: cell-based, human
From the text: (§1) Twenty-four primary leukemic cells and 1 leukemic cell line were characterized for their expression of WT1 by intracellular FACS staining using murine anti-human WT1 monoclonal antibodies (Neomarkers, Fremont, Calif.) as previously described (32,38) The WT1+ leukemias included blast cells from 11 primary AMLs, 3 primary ALLs and 1B-cell precursor ALL cell line. Ten WT1-leukemias, were used as controls, and included 3 B-cell precursor ALLs and 7 AMLs.
PHA blasts were not available from every patient that provided leukemia blasts for this study.

[5] = test system: WT1+ allo APC with restricting HLA allele loaded with WT1 peptide; test: Cr51 release assay, cytotoxic CTL response vs peptide loaded allogeneic APC sharing restricting HLA allele (HLA restriction)
[6] = test system: WT1- leukemia; test: Cr51 release assay, cytotoxic CTL response vs WT1- leukemia; format: cell-based, human
From the text: as §1

CC(C)C[C@H](NC(=O)[C@H](CC(C)C)NC(=O)[C@H](CC(C)C)NC(=O)[C@H](C)NC(=O)[C@H](CCC(N)=O)NC(=O)[C@H](CO)NC(=O)CNC(=O)[C@@H](NC(=O)[C@@H](N)CS)[C@@H](C)O)C(=O)O [SEQ ID NO: 167] (H-CTGSQALLL-OH; N-terminus and C-terminus assumed)
Cytotoxic CTL response, % vs WT1 peptide loaded autologous APC ([1]; HLA allele A0101): 21% | Cytotoxic CTL response, % vs WT1- allo APC with restricting HLA allele ([2]; HLA allele A0101): 0% | Cytotoxic CTL response, % vs WT1- autologous APC ([3]; HLA allele A0101): 0% | Cytotoxic CTL response, % vs WT1+ leukemia ([4]; HLA allele A0101): 33% | Cytotoxic CTL response, % vs WT1+ allo APC with restricting HLA allele loaded with WT1 peptide ([5]; HLA allele A0101): 26% | Cytotoxic CTL response, % vs WT1- leukemia ([6]; HLA allele A0101): 3%

C[C@H](NC(=O)[C@H](CCC(N)=O)NC(=O)[C@H](CO)NC(=O)CNC(=O)[C@@H](NC(=O)[C@H](CS)NC(=O)[C@H](CO)NC(=O)[C@H](CC(=O)O)NC(=O)[C@@H](N)[C@@H](C)O)[C@@H](C)O)C(=O)O [SEQ ID NO: 168] (H-TDSCTGSQA-OH; N-terminus and C-terminus assumed)
Cytotoxic CTL response, % vs WT1 peptide loaded autologous APC ([1]; HLA allele B3802): 88% | Cytotoxic CTL response, % vs WT1 peptide loaded autologous APC ([1]; HLA allele B4402): 36% | Cytotoxic CTL response, % vs WT1- allo APC with restricting HLA allele ([2]; HLA allele B3802): 1% | Cytotoxic CTL response, % vs WT1- allo APC with restricting HLA allele ([2]; HLA allele B4402): 0% | Cytotoxic CTL response, % vs WT1- autologous APC ([3]; HLA allele B3802): 0% | Cytotoxic CTL response, % vs WT1- autologous APC ([3]; HLA allele B4402): 1% | Cytotoxic CTL response, % vs WT1+ leukemia ([4]; HLA allele B4402): 56% | Cytotoxic CTL response, % vs WT1+ allo APC with restricting HLA allele loaded with WT1 peptide ([5]; HLA allele B3802): 53% | Cytotoxic CTL response, % vs WT1+ allo APC with restricting HLA allele loaded with WT1 peptide ([5]; HLA allele B4402): 88% | Cytotoxic CTL response, % vs WT1- leukemia ([6]; HLA allele B4402): 1%

CSCC[C@H](NC(=O)[C@H](CCC(N)=O)NC(=O)[C@H](CC(N)=O)NC(=O)[C@@H](N)Cc1c[nH]c2ccccc12)C(=O)N[C@@H](CC(N)=O)C(=O)N[C@@H](CC(C)C)C(=O)NCC(=O)N[C@@H](C)C(=O)N[C@H](C(=O)O)[C@@H](C)O [SEQ ID NO: 171] (H-WNQMNLGAT-OH; N-terminus and C-terminus assumed)
Cytotoxic CTL response, % vs WT1 peptide loaded autologous APC ([1]; HLA allele A0101): 26% | Cytotoxic CTL response, % vs WT1 peptide loaded autologous APC ([1]; HLA allele A0201): 18% | Cytotoxic CTL response, % vs WT1 peptide loaded autologous APC ([1]; HLA allele B3508): 18% | Cytotoxic CTL response, % vs WT1 peptide loaded autologous APC ([1]; HLA allele C1701): 10% | Cytotoxic CTL response, % vs WT1- allo APC with restricting HLA allele ([2]; HLA allele A0101): 3% | Cytotoxic CTL response, % vs WT1- allo APC with restricting HLA allele ([2]; HLA allele A0201): 0% | Cytotoxic CTL response, % vs WT1- allo APC with restricting HLA allele ([2]; HLA allele B3508): 2% | Cytotoxic CTL response, % vs WT1- allo APC with restricting HLA allele ([2]; HLA allele C1701): 0% | Cytotoxic CTL response, % vs WT1- autologous APC ([3]; HLA allele A0101): 0% | Cytotoxic CTL response, % vs WT1- autologous APC ([3]; HLA allele A0201): 0% | Cytotoxic CTL response, % vs WT1- autologous APC ([3]; HLA allele B3508): 0% | Cytotoxic CTL response, % vs WT1- autologous APC ([3]; HLA allele C1701): 0% | Cytotoxic CTL response, % vs WT1+ leukemia ([4]; HLA allele A0201): 19% | Cytotoxic CTL response, % vs WT1+ leukemia ([4]; HLA allele B3508): 19% | Cytotoxic CTL response, % vs WT1+ leukemia ([4]; HLA allele C1701): 16% | Cytotoxic CTL response, % vs WT1+ allo APC with restricting HLA allele loaded with WT1 peptide ([5]; HLA allele A0101): 19% | Cytotoxic CTL response, % vs WT1+ allo APC with restricting HLA allele loaded with WT1 peptide ([5]; HLA allele A0201): 21% | Cytotoxic CTL response, % vs WT1+ allo APC with restricting HLA allele loaded with WT1 peptide ([5]; HLA allele B3508): 21% | Cytotoxic CTL response, % vs WT1+ allo APC with restricting HLA allele loaded with WT1 peptide ([5]; HLA allele C1701): 7% | Cytotoxic CTL response, % vs WT1- leukemia ([6]; HLA allele A0201): 1% | Cytotoxic CTL response, % vs WT1- leukemia ([6]; HLA allele B3508): 4% | Cytotoxic CTL response, % vs WT1- leukemia ([6]; HLA allele C1701): 1%

CSCC[C@H](NC(=O)[C@H](CCC(N)=O)NC(=O)[C@@H](N)CC(N)=O)C(=O)N[C@@H](CC(N)=O)C(=O)N[C@@H](CC(C)C)C(=O)NCC(=O)N[C@@H](C)C(=O)N[C@H](C(=O)N[C@@H](CC(C)C)C(=O)O)[C@@H](C)O [SEQ ID NO: 172] (H-NQMNLGATL-OH; N-terminus and C-terminus assumed)
Cytotoxic CTL response, % vs WT1 peptide loaded autologous APC ([1]; HLA allele A2402): 9% | Cytotoxic CTL response, % vs WT1- allo APC with restricting HLA allele ([2]; HLA allele A2402): 0% | Cytotoxic CTL response, % vs WT1- autologous APC ([3]; HLA allele A2402): 4% | Cytotoxic CTL response, % vs WT1+ leukemia ([4]; HLA allele A2402): 17% | Cytotoxic CTL response, % vs WT1+ allo APC with restricting HLA allele loaded with WT1 peptide ([5]; HLA allele A2402): 2% | Cytotoxic CTL response, % vs WT1- leukemia ([6]; HLA allele A2402): 1%

CSCC[C@H](NC(=O)[C@H](CCC(N)=O)NC(=O)[C@H](CC(N)=O)NC(=O)[C@@H](N)Cc1c[nH]c2ccccc12)C(=O)N[C@@H](CC(N)=O)C(=O)N[C@@H](CC(C)C)C(=O)NCC(=O)N[C@@H](C)C(=O)N[C@H](C(=O)N[C@@H](CC(C)C)C(=O)N[C@@H](CCCCN)C(=O)O)[C@@H](C)O [SEQ ID NO: 173] (H-WNQMNLGATLK-OH; N-terminus and C-terminus assumed)
Cytotoxic CTL response, % vs WT1 peptide loaded autologous APC ([1]; HLA allele DRB11104): 8% | Cytotoxic CTL response, % vs WT1- allo APC with restricting HLA allele ([2]; HLA allele DRB11104): 2% | Cytotoxic CTL response, % vs WT1- autologous APC ([3]; HLA allele DRB11104): 0% | Cytotoxic CTL response, % vs WT1+ leukemia ([4]; HLA allele DRB11104): 0% | Cytotoxic CTL response, % vs WT1+ allo APC with restricting HLA allele loaded with WT1 peptide ([5]; HLA allele DRB11104): 1% | Cytotoxic CTL response, % vs WT1- leukemia ([6]; HLA allele DRB11104): 0%

CC(C)C[C@H](NC(=O)[C@@H](NC(=O)[C@H](C)NC(=O)CNC(=O)[C@H](CC(C)C)NC(=O)[C@@H](N)CC(N)=O)[C@@H](C)O)C(=O)N[C@@H](CCCCN)C(=O)NCC(=O)N[C@H](C(=O)O)C(C)C [SEQ ID NO: 175] (H-NLGATLKGV-OH; N-terminus and C-terminus assumed)
Cytotoxic CTL response, % vs WT1 peptide loaded autologous APC ([1]; HLA allele A0101): 19% | Cytotoxic CTL response, % vs WT1 peptide loaded autologous APC ([1]; HLA allele A0201): 18% | Cytotoxic CTL response, % vs WT1- allo APC with restricting HLA allele ([2]; HLA allele A0101): 1% | Cytotoxic CTL response, % vs WT1- allo APC with restricting HLA allele ([2]; HLA allele A0201): 1% | Cytotoxic CTL response, % vs WT1- autologous APC ([3]; HLA allele A0101): 2% | Cytotoxic CTL response, % vs WT1- autologous APC ([3]; HLA allele A0201): 1% | Cytotoxic CTL response, % vs WT1+ leukemia ([4]; HLA allele A0201): 19% | Cytotoxic CTL response, % vs WT1+ allo APC with restricting HLA allele loaded with WT1 peptide ([5]; HLA allele A0101): 17% | Cytotoxic CTL response, % vs WT1+ allo APC with restricting HLA allele loaded with WT1 peptide ([5]; HLA allele A0201): 14% | Cytotoxic CTL response, % vs WT1- leukemia ([6]; HLA allele A0201): 2%

C[C@@H](O)[C@H](NC(=O)[C@@H](NC(=O)[C@H](Cc1c[nH]cn1)NC(=O)[C@H](CC(N)=O)NC(=O)[C@H](CC(=O)O)NC(=O)[C@H](CO)NC(=O)[C@H](CCC(=O)O)NC(=O)[C@H](Cc1ccc(O)cc1)NC(=O)CN)[C@@H](C)O)C(=O)O [SEQ ID NO: 178] (H-GYESDNHTT-OH; N-terminus and C-terminus assumed)
Cytotoxic CTL response, % vs WT1 peptide loaded autologous APC ([1]; HLA allele A0101): 27% | Cytotoxic CTL response, % vs WT1 peptide loaded autologous APC ([1]; HLA allele B3501): 35% | Cytotoxic CTL response, % vs WT1- allo APC with restricting HLA allele ([2]; HLA allele A0101): 0% | Cytotoxic CTL response, % vs WT1- allo APC with restricting HLA allele ([2]; HLA allele B3501): 0% | Cytotoxic CTL response, % vs WT1- autologous APC ([3]; HLA allele A0101): 0% | Cytotoxic CTL response, % vs WT1- autologous APC ([3]; HLA allele B3501): 0% | Cytotoxic CTL response, % vs WT1+ leukemia ([4]; HLA allele A0101): 33% | Cytotoxic CTL response, % vs WT1+ allo APC with restricting HLA allele loaded with WT1 peptide ([5]; HLA allele A0101): 26% | Cytotoxic CTL response, % vs WT1+ allo APC with restricting HLA allele loaded with WT1 peptide ([5]; HLA allele B3501): 23% | Cytotoxic CTL response, % vs WT1- leukemia ([6]; HLA allele A0101): 0%

Source: patent US10815274B2, “Immunogenic WT-1 peptides and methods of use thereof” (Memorial Sloan Kettering Cancer Center, priority 2012, dated 2020)
